According to the kinase profiling compilation of Christmann-Franck et al. (2016):

How the values were obtained:
DYRK3 (human) = DYRK3 (human) (UniProt O43781)
PKN2 (human) = PKN2 (human) (UniProt Q16513)
CDK2 CCNA2 (human) = CDK2 CCNA2 (human) (UniProt P20248+P24941)
LCK (mouse) = details: accession and sequence are those of the human protein
MKNK2 (human) = MKNK2 (human) (UniProt Q9HBH9)
MST4 (human) = MST4 (human) (UniProt Q9P289)
MAPKAPK5 (human) = MAPKAPK5 (human) (UniProt Q8IW41)
FGFR1 (human) = FGFR1 (human) (UniProt P11362)
MAPK1 (human) = MAPK1 (human) (UniProt P28482)
SRC (human) = SRC (human) (UniProt P12931); details: compound 10.0 µM
MAPK3 (human) = MAPK3 (human) (UniProt P27361)
RPS6KA3 KD1 KD2 (human) = RPS6KA3 KD1 KD2 (human) (UniProt P51812)
DYRK1A (human) = DYRK1A (human) (UniProt Q13627)
NEK6 (human) = NEK6 (human) (UniProt Q9HC98)
[1] = system: ABL1 (human), P00519 [E255K]; assay: KINOMEscan competition binding; details: compound 10.0 µM
[2] = system: PIK3CA (human), P42336 [H1047Y]; assay: KINOMEscan competition binding; details: compound 10.0 µM
[3] = system: EGFR (human), P00533 [746-750 del]; assay: KINOMEscan competition binding; details: compound 10.0 µM
PIK3CG (human) = PIK3CG (human) (UniProt P48736); assay: KINOMEscan competition binding; details: compound 10.0 µM
[4] = system: KIT (human), P10721 [V559D/V654A]; assay: KINOMEscan competition binding; details: compound 10.0 µM
[5] = system: EGFR (human), P00533 [L861Q]; assay: KINOMEscan competition binding; details: compound 10.0 µM
PIK3CA (human) = PIK3CA (human) (UniProt P42336); assay: KINOMEscan competition binding; details: compound 10.0 µM
MARK2 (human) = MARK2 (human) (UniProt Q7KZI7); assay: KINOMEscan competition binding; details: compound 10.0 µM
[6] = system: EGFR (human), P00533 [G719S]; assay: KINOMEscan competition binding; details: compound 10.0 µM
[7] = system: EGFR (human), P00533 [G719C]; assay: KINOMEscan competition binding; details: compound 10.0 µM
[8] = system: EGFR (human), P00533 [P753S; 747-752 del]; assay: KINOMEscan competition binding; details: compound 10.0 µM
[9] = system: ABL1 (human), P00519 [Y253F]; assay: KINOMEscan competition binding; details: compound 10.0 µM

Chain of MAPK1 (human) (P28482 whole entry, looked up): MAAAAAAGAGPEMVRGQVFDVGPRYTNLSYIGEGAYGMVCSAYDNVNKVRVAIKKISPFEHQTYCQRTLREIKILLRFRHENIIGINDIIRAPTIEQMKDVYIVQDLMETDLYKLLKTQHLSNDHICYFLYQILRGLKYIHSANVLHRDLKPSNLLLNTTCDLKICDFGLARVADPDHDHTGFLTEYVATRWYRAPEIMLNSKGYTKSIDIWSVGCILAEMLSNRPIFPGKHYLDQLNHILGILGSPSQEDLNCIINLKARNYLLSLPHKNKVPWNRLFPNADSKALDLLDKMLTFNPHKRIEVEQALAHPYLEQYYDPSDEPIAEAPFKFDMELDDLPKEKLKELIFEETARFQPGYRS
Chain of MST4 (human) (Q9P289 whole entry, looked up): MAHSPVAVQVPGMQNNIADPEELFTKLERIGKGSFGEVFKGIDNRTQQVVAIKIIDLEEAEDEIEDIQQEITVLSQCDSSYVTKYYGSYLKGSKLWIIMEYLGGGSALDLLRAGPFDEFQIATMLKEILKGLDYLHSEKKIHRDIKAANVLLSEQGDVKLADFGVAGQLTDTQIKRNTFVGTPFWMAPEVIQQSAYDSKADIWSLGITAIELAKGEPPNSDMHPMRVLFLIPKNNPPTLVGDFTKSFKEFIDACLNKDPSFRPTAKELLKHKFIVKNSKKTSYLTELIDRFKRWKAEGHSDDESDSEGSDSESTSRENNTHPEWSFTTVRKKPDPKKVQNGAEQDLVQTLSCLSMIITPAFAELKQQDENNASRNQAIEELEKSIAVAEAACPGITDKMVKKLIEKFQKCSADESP
Chain of MKNK2 (human) (Q9HBH9 whole entry, looked up): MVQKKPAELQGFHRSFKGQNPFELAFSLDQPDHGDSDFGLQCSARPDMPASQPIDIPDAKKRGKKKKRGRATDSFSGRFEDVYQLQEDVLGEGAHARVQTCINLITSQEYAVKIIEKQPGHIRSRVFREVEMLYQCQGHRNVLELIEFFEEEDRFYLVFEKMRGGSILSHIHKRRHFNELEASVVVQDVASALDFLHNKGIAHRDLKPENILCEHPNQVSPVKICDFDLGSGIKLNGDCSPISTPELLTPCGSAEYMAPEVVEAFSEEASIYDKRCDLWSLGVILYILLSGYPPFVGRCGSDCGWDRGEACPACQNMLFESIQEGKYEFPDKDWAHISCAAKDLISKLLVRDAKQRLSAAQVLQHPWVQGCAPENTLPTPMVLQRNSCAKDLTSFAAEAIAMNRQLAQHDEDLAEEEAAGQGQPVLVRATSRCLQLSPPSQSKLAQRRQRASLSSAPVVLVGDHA
Chain of DYRK3 (human) (O43781 whole entry, looked up): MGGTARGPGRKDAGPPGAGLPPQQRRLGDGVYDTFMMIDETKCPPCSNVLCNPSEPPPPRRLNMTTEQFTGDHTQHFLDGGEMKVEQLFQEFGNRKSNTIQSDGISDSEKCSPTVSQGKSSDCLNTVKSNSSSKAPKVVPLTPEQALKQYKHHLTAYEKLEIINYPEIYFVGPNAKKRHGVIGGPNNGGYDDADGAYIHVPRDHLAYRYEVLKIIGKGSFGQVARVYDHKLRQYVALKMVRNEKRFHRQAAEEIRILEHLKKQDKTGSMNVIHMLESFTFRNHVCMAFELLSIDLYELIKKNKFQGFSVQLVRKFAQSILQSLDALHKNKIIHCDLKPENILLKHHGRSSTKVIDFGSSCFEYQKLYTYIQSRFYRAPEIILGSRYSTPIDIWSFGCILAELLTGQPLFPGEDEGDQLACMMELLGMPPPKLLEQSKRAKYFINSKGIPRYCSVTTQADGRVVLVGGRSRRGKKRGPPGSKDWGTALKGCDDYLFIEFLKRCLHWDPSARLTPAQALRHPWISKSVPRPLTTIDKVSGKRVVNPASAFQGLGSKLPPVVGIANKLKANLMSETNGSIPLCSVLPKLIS
Chain of MAPKAPK5 (human) (Q8IW41 whole entry, looked up): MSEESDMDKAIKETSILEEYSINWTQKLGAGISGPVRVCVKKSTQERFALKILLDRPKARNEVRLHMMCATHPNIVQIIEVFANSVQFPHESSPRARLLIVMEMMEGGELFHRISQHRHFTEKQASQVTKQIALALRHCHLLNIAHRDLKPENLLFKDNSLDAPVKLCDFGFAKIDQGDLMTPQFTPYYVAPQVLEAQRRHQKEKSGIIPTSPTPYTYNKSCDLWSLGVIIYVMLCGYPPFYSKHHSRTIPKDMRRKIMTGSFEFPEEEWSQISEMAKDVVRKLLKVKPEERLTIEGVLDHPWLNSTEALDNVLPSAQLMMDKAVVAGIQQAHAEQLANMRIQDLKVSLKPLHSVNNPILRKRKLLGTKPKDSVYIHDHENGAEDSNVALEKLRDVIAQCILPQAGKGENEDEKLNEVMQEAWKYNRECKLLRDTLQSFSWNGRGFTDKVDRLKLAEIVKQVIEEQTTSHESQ
Chain of FGFR1 (human) (P11362 whole entry, looked up): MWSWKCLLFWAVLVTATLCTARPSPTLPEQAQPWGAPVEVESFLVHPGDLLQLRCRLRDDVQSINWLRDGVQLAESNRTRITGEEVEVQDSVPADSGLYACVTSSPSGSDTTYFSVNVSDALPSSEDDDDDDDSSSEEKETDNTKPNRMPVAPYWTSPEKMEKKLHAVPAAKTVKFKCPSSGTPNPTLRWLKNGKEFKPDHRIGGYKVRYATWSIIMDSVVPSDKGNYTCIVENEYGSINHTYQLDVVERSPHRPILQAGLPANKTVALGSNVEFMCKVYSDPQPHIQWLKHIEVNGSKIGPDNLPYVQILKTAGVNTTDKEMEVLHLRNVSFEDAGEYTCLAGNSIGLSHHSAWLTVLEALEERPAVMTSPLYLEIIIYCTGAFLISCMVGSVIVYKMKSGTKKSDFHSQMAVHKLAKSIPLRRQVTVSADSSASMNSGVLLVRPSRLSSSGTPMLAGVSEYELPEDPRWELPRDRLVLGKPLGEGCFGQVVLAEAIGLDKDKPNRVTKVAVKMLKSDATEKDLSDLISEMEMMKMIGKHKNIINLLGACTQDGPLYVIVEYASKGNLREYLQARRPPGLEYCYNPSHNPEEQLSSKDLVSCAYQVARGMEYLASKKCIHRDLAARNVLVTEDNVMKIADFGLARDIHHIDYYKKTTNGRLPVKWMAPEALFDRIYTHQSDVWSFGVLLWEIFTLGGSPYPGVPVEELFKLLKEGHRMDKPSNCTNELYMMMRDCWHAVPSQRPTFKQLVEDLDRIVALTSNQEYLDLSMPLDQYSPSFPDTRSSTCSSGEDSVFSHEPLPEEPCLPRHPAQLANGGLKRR
Chain of RPS6KA3 KD1 KD2 (human) (P51812 whole entry, looked up): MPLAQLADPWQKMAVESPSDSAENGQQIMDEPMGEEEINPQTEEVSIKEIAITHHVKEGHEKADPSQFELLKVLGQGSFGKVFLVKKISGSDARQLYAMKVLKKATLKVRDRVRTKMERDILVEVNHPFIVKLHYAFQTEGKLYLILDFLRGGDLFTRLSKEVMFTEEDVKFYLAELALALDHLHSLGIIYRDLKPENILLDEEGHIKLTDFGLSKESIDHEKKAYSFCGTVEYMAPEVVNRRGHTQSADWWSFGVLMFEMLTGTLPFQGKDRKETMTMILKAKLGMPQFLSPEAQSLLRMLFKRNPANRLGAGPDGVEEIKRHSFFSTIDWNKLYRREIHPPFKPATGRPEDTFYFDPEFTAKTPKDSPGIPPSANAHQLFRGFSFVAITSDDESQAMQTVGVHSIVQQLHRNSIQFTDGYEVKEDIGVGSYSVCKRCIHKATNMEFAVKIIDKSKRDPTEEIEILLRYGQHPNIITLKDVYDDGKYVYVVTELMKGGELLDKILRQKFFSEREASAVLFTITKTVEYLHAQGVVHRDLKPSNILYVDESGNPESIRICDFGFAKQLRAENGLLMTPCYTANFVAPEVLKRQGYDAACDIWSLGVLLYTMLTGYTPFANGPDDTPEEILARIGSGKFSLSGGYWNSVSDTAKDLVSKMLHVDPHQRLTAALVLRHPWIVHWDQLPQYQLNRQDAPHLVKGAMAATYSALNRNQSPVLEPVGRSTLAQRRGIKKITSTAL
Chain of PKN2 (human) (Q16513 whole entry, looked up): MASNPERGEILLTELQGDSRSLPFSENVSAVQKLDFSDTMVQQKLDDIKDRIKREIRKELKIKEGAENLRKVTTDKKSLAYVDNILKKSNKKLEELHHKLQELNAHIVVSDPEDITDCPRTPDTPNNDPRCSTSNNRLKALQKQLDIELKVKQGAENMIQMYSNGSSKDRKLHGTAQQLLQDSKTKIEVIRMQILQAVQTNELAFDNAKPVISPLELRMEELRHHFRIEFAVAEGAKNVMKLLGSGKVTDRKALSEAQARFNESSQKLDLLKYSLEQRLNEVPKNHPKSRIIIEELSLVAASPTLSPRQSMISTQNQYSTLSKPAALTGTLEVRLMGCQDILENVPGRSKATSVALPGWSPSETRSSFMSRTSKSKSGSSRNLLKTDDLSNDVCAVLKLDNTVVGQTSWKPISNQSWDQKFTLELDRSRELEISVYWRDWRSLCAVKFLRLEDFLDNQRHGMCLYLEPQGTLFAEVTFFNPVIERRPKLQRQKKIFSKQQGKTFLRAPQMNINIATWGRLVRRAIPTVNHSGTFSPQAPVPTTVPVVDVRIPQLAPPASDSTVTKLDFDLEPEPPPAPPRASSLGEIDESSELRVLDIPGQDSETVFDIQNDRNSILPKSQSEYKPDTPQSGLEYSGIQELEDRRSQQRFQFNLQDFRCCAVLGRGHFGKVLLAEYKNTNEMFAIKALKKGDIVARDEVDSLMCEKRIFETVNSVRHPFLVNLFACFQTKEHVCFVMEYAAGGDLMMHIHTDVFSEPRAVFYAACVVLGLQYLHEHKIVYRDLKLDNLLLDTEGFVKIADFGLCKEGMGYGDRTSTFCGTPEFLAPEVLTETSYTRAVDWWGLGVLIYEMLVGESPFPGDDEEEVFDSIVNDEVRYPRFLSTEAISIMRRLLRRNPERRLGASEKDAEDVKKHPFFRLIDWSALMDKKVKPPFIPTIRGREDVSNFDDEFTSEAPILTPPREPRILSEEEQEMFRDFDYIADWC

COc1ccc(-c2ccc3c(N4CCOCC4)nc(N4C[C@@H](C)O[C@@H](C)C4)nc3n2)cc1CO
per cent of control (DYRK3 (human); compound 1.0 µM): 88% | per cent of control (DYRK3 (human); compound 10.0 µM): 84% | per cent of control (PKN2 (human); compound 1.0 µM): 95% | per cent of control (PKN2 (human); compound 10.0 µM): 105% | per cent of control (CDK2 CCNA2 (human); compound 1.0 µM): 89% | per cent of control (CDK2 CCNA2 (human); compound 10.0 µM): 90% | per cent of control (LCK (mouse); compound 1.0 µM): 69% | per cent of control (LCK (mouse); compound 10.0 µM): 104% | per cent of control (MKNK2 (human); compound 1.0 µM): 87% | per cent of control (MKNK2 (human); compound 10.0 µM): 92% | per cent of control (MST4 (human); compound 1.0 µM): 87% | per cent of control (MST4 (human); compound 10.0 µM): 86% | per cent of control (MAPKAPK5 (human); compound 1.0 µM): 67% | per cent of control (MAPKAPK5 (human); compound 10.0 µM): 87% | per cent of control (FGFR1 (human); compound 1.0 µM): 102% | per cent of control (FGFR1 (human); compound 10.0 µM): 87% | per cent of control (MAPK1 (human); compound 1.0 µM): 102% | per cent of control (MAPK1 (human); compound 10.0 µM): 92% | per cent of control (SRC (human)): 86% | per cent of control (MAPK3 (human); compound 1.0 µM): 102% | per cent of control (MAPK3 (human); compound 10.0 µM): 87% | per cent of control (RPS6KA3 KD1 KD2 (human); compound 1.0 µM): 103% | per cent of control (RPS6KA3 KD1 KD2 (human); compound 10.0 µM): 104% | per cent of control (DYRK1A (human); compound 1.0 µM): 94% | per cent of control (DYRK1A (human); compound 10.0 µM): 80% | per cent of control (NEK6 (human); compound 1.0 µM): 74% | per cent of control (NEK6 (human); compound 10.0 µM): 83% | kinase still bound, per cent of control [1]: 100% | kinase still bound, per cent of control [2]: 3.2% | kinase still bound, per cent of control [3]: 100% | kinase still bound, per cent of control (PIK3CG (human)): 23% | kinase still bound, per cent of control [4]: 100% | kinase still bound, per cent of control [5]: 83% | kinase still bound, per cent of control (PIK3CA (human)): 2.5% | kinase still bound, per cent of control (MARK2 (human)): 94% | kinase still bound, per cent of control [6]: 100% | kinase still bound, per cent of control [7]: 100% | kinase still bound, per cent of control [8]: 100% | kinase still bound, per cent of control [9]: 100%
